This note sets out measurements from patent US9980890B2, “Zinc amino acid halide mouthwashes” (Colgate-Palmolive Company, priority 2012, dated 2018).

Series [1] in a line: Clarity of oral gel phase batches: absorbance at 610 nm (Lambda 25 UV/VIS), original and diluted. The settings on record: for Absorbance: 610 nm. It counts as physicochemical. The protocol:
The clarity of samples with different actives is compared, and the precipitation characteristic of ZLC gel phase by dilution is evaluated. […] Zinc ion concentration in the following batches are all prepared at 0.5% (w/w) zinc level.
Lambda 25 UV/VIS Spectrometer (PerkinElmer) is used to obtain absorbance information for all samples in order to compare the clarity of gel phase between different actives. Absorbance is a logarithmic measure of the amount of light that is absorbed when passing through a substance. Since the particles in the gel absorb light, the more particles existing in solution, the more light absorbed by the gel. Thus, a small number of absorbance of a gel indicates a higher clarity. The absorbance is corrected by using deionized (DI) water as the blank solution under the light source wavelength of 610 nm.

Series [2] can be described thus: pH of oral gel phase batches, original and diluted. It counts as physicochemical. The settings on record: original gel phase batch with the named active.
Series [3] in a line: Turbidity (percent transmission, TurbiScan) of mouthwash batches, original and diluted. Format: physicochemical. The settings on record: zinc 1.01 wt %. The protocol: Four 500 g mouthwash batches which contain NaF, ZLC, ZnCl2 and ZnO as active ingredient are formulated with the ingredients shown in Table 1. The objective of this study is to compare the clarity of samples with different actives. Turbidity is evaluated by the percent transmission of light through the solution as measured by a TurbiScan® dispersion stability analyzer. The higher the percent transmission, the more transparent the composition. […] The concentration of zinc ions in ZLC solution is 25300 ppm obtained by ICP (Inductively Coupled Plasma) analysis, which corresponds to approximately 17% weight of ZLC actives in the solution. Zinc ion concentration in all batches is controlled to same level, i.e., 1.01 wt %. Among the four batches, the one that has ZnO as active appears milk white, with 0% transmission, while the other three samples are as clear as the deionized water (Table 2).
All original mouthwash batches are diluted into 2 fold, 4 fold, 8 fold, 16 fold and 32 fold. Turbidity measurements are performed after all solutions are prepared and well shaken. The turbidity data of the samples are shown in Table 3, 4, 5 and 6, for the dilutions of mouthwash containing NaF, ZLC, ZnCl2 and ZnO respectively.

Series [4] can be described thus: Dilution experiment of ZLC neat solution: visible flocculation/precipitation at 37° C. Format: physicochemical. The method, then:
Various dilutions of ZLC are prepared to evaluate its efficiency in producing visible precipitates and/or flocculation, which can be delivered in situ onto an oral surface or into a dental opening, such as open tubules.
(§1) A neat solution of ZLC is prepared by 1), reacting 0.5 mole of ZnO powder with 1 mole of lysine HCl in 1 liter of water at room temperature for about 2 hours, and 2) collecting the supernatant through centrifugation followed by filtration using a 0.45 micron membrane. The neat solution has a zinc concentration of 2.39% by weight, and a pH of about 7.03.
(§2) Dilution experiment is conducted by mixing the neat solution with deionized water. The neat solution is diluted by 2×, 4×, 6×, 7×, 8×, 10×, 12×, 16×, 20×, 24×, 28×, and 32×, corresponding to initial zinc concentrations of 1.20%, 0.598%, 0.398%, 0.341%, 0.299%, 0.239%, 0.199%, 0.149%, 0.120%, 0.0996%, 0.0854%, 0.0747%, by weight, respectively. The diluted samples are kept at 37° C., and the rates at which flocculation/precipitation occurred are monitored.

Series [5] is described as follows: pH of ZLC neat solution and final diluted samples. Format: physicochemical. The settings on record: neat solution, zinc 2.39% by weight. The method, then: as §1, §2
pH values of final diluted samples are suitable for oral care applications. […] These pH values were well within the range of 5.5 to 10, which defines the suitable range for oral care formulations.

Series [6] is described as follows: Deposition/occlusion assay on dentine slices, confocal imaging. Details: species or system human. The protocol: The deposition/occlusion assay is conducted using human dentine slices and the neat solution of Example 5. The dentine slices were prepared by cutting human tooth into thin dentine sections of about 800 microns in thickness, choosing a test side, sanding said test side using a sandpaper of about 600 grit, polishing said test side using a Buehler polishing cloth and 5 micron Buehler aluminum oxide, acid-etching said dentine section in 1% (by weight) citric acid solution for about 20 seconds, sonicating said dentine section for 10 minutes, and storing said dentine section in phosphate buffered saline (PBS, pH 7.4).
For treatment, the neat solution is diluted 16-fold with water, yielding a treatment solution with initial zinc concentration of about 0.149% by weight. The dentine section is immersed in the treatment solution for 1 hour at 37° C. The treated dentine section is then removed from the treatment solution, and rinsed 4 times, each time with 1 mL of PBS. The dentine section is then dried using a paper-based tissue and examined under confocal microscope in both XYZ and XYZ modes. Subsequent treatments are conducted in the same manner.
Dentine sections, as prepared in Example 6, are repeatedly treated with ZLC dilutions with initial zinc concentration of 0.0747% by weight. […] The dentine section is examined under the confocal microscope after each treatment.

Setting [7] is: gel phase batch, 2 fold dilution.
[8] abbreviates: gel phase batch, 4 fold dilution.
Where [9] appears, read: gel phase batch, 8 fold dilution.
Setting [10] is: gel phase batch, 16 fold dilution.
The mark [11] stands for this setting: gel phase batch, 32 fold dilution.
Setting [12] is: original gel phase batch with the named active.
The mark [13] stands for this setting: original gel phase batch with the named active, DI water blank, 0.5% (w/w) zinc.
The mark [14] stands for this setting: initial zinc 0.0747% (32-fold dilution), 10 minutes at 37° C. each.
The mark [15] stands for this setting: neat solution diluted 16-fold, zinc about 0.149%, 1 hour at 37° C. each.

Take `[O]=[Zn]` [ZnO]: the Absorbance in series [1] (setting [7]) was determined as 2.4630; in series [1] (setting [8]), 2.5340; in series [1] (setting [9]), 2.1883; in series [1] (setting [10]), 1.8638; in series [1] (setting [11]), 1.0492; in series [1] (setting [13]) it was 2.4626. Moreover, the “Appearance / dissolution of active in gel phase” value (shortened to “Appearance / dissolution”) in series [1] (setting [12]) is recorded as “not dissolved”. Moreover, in series [2], the pH was determined as 8.30. For the same compound, the “Appearance / clarity of mouthwash batch” value in series [3] (original mouthwash batch with the named active) was “milk white”. The “Turbidity (% Transmission)” value in series [3] (original mouthwash batch, undiluted) worked out at 0%.

Turning to `[Cl-].[Cl-].[Zn+2]` [ZnCl2], the Absorbance in series [1] (setting [7]) stood at 0.7315; in series [1] (setting [8]) it was 0.3700; in series [1] (setting [9]) it was 0.1701; in series [1] (setting [10]) it was 0.0570; in series [1] (setting [11]), 0.0280; in series [1] (setting [13]) it was 0.9204. Moreover, in series [1] (setting [12]), the “Appearance / dissolution” value is listed as “cloudy”. The compound also had a pH in series [2] of 5.25.

[Zn(C6H14N2O2)2Cl]^+Cl^− [ZLC]: the “Flocculation observation two hours after mixing” value in series [4] (additional sample with initial zinc concentration 0.299%) is recorded as “presence of flocculation”. Besides, the “Flocculation/precipitation observation after a total of 19 hours” value in series [4] (all samples except initial zinc concentration 1.20%) is given as “flocculation and/or precipitation can be observed”. For the same compound, the “Time to some visible flocculation after mixing stock solution with water” value in series [4] (dilutions with initial zinc concentrations 0.149% and 0.199%) was at most 30 min. The “Flocculation observation one and a half hours after mixing” value in series [4] (dilutions with initial zinc concentrations between 0.0747% and 0.239%) is on record as “visible flocculation”. Moreover, the “Flocculation observation one hour from mixing” value in series [4] (dilutions with initial zinc concentrations between 0.0854% and 0.239%) is on record as “visible flocculation”. The “Relative amount of precipitate after a total of 19 hours” value in series [4] (initial zinc concentrations between 0.0747% and 0.239%) was “the most precipitates”. In addition, the pH entry in series [5] is given as “about 7.03”. In addition, the Absorbance in series [1] (setting [9]) is reported as 0.1860. Moreover, the Absorbance in series [1] (setting [10]) was found to be 0.1336. Moreover, the “Appearance / dissolution” value in series [1] (setting [12]) is listed as “homogenous solution”. Also, in series [1] (setting [13]), the Absorbance amounted to 0.1765. In series [2], this compound registered a pH of 7.37. Besides, in series [6] (setting [14]), the “Deposition by confocal imaging after 4 consecutive treatments” value is listed as “significant surface deposition” and the “Deposition/occlusion by confocal imaging after 12 consecutive treatments” value is “complete surface coverage”. In series [6] (initial zinc 0.0747%, 10 minutes at 37° C.), the “Visible precipitation during treatment” value is on record as “no precipitation is observed by naked eyes”. Besides, in series [6] (neat solution diluted 16-fold, zinc about 0.149%, 1 hour at 37° C.), the “Deposition/occlusion by confocal imaging, first treatment” value is “noticeable deposition”. In series [6] (setting [15]), the “Deposition/occlusion by confocal imaging, second treatment” value is on record as “complete surface coverage, including blocking of substantially all tubule openings”; the “Deposition/occlusion by confocal imaging, third treatment” value was “complete surface coverage and complete blocking of tubule openings”; the “Thickness of surface deposits, second treatment” value is at least 10 microns; the “Thickness of surface deposits, third treatment” value was at least 25 microns.

With `[F-].[Na+]` [NaF, Sodium Fluoride], the Absorbance in series [1] (setting [7]) amounted to 0.0106; in series [1] (setting [8]), 0.0104; in series [1] (setting [9]), 0.0107; in series [1] (setting [10]), 0.0075; in series [1] (setting [11]), 0.0137; in series [1] (setting [13]) it was 0.0344. The same compound came in with a pH in series [2] of 7.63.
